Reference: ChEMBL document CHEMBL1201862, “PubChem BioAssay data set” (2004)
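Results reflect a 48-hour exposure of cells in 96-well plates to compound at five concentrations. At the GI50, growth is halved.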 Calls of active or inactive are those of the source. No stated cut-off is given here; in the data, active = GI50 up to about 1.1 µM and inactive = higher.

What was measured:
Assay in all cases: NCI tumour cell line growth inhibition, 48 h
NCI-H23 = tested on: NCI-H23
KM12 = tested on: KM12
UO-31 = tested on: UO-31
SW-620 = tested on: SW-620
MOLT-4 = tested on: MOLT-4
SN12C = tested on: SN12C
OVCAR-8 = tested on: OVCAR-8
UACC-257 = tested on: UACC-257
SK-OV-3 = tested on: SK-OV-3
NCI-H522 = tested on: NCI-H522
TK-10 = tested on: TK-10
EKVX = tested on: EKVX
COLO 205 = tested on: COLO 205
HOP-62 = tested on: HOP-62
K562 = tested on: K562
U-251 = tested on: U-251
Malme-3M = tested on: Malme-3M
SNB-19 = tested on: SNB-19
CAKI-1 = tested on: CAKI-1

Row | Compound | GI50 (NCI-H23) | GI50 (KM12) | GI50 (UO-31) | GI50 (SW-620) | GI50 (MOLT-4) | GI50 (SN12C) | GI50 (OVCAR-8) | GI50 (UACC-257) | GI50 (SK-OV-3) | GI50 (NCI-H522) | GI50 (TK-10) | GI50 (EKVX) | GI50 (COLO 205) | GI50 (HOP-62) | GI50 (K562) | GI50 (U-251) | GI50 (Malme-3M) | GI50 (SNB-19) | GI50 (CAKI-1)
1 | C/C=C/C1(NS(=O)(=O)c2ccc(C)cc2)CCC(C(C)(C)C)CC1 (stereo not given) | 18.8 µM (inactive) | 20.8 µM (inactive) | 25.4 µM (inactive) | 26.1 µM (inactive) | 16.5 µM (inactive) | 18.2 µM (inactive) | 36.1 µM (inactive) | 25.4 µM (inactive) | 27.4 µM (inactive) | 11.6 µM (inactive) | 35.8 µM (inactive) | 23 µM (inactive) | 20 µM (inactive) | 22 µM (inactive) | 35.5 µM (inactive) | 16.1 µM (inactive) | 22.2 µM (inactive) | 42.2 µM (inactive) | 28.8 µM (inactive)
2 | CC1(C)C(=NNC(=S)NN)C(C)(C)C1=NNC(=S)NN | > 100 µM (inactive) |  |  | > 100 µM (inactive) |  | > 100 µM (inactive) | > 100 µM (inactive) | > 100 µM (inactive) | > 100 µM (inactive) | 75 µM (inactive) | > 100 µM (inactive) | > 100 µM (inactive) | > 100 µM (inactive) | > 100 µM (inactive) | 43.2 µM (inactive) |  | > 100 µM (inactive) | > 100 µM (inactive) | > 100 µM (inactive)
3 | CN[C@@H](C)[C@@H](N)c1ccccc1 | > 100 µM (inactive) |  | > 100 µM (inactive) | > 100 µM (inactive) | > 100 µM (inactive) | > 100 µM (inactive) | > 100 µM (inactive) | > 100 µM (inactive) | > 100 µM (inactive) | > 100 µM (inactive) | > 100 µM (inactive) | > 100 µM (inactive) | > 100 µM (inactive) |  | > 100 µM (inactive) | > 100 µM (inactive) | > 100 µM (inactive) | > 100 µM (inactive) | > 100 µM (inactive)
4 | O=C(NOC(=O)c1ccc([N+](=O)[O-])cc1)c1ccc(Cl)cc1 | > 100 µM (inactive) | > 100 µM (inactive) | 23.8 µM (inactive) | 38 µM (inactive) | 20.4 µM (inactive) | 62.4 µM (inactive) | 98.6 µM (inactive) | > 100 µM (inactive) | > 100 µM (inactive) | 27 µM (inactive) |  | > 100 µM (inactive) | > 100 µM (inactive) | > 100 µM (inactive) | 21.6 µM (inactive) | 76.7 µM (inactive) | > 100 µM (inactive) | > 100 µM (inactive) | 39.6 µM (inactive)
5 | COc1ccc(CC2NCCc3cc(OC)c(OC)cc32)cc1 (stereo not given) | > 100 µM (inactive) | > 100 µM (inactive) | > 85.3 µM (inactive) | > 100 µM (inactive) | > 100 µM (inactive) | > 100 µM (inactive) | > 100 µM (inactive) | > 100 µM (inactive) | > 100 µM (inactive) | > 100 µM (inactive) | > 100 µM (inactive) | > 100 µM (inactive) | > 100 µM (inactive) | > 100 µM (inactive) |  | > 100 µM (inactive) | > 100 µM (inactive) | > 100 µM (inactive) | > 100 µM (inactive)
6 | CCOC(=O)COc1cccc2c1C(=O)CCO2 | > 100 µM (inactive) | > 100 µM (inactive) | > 100 µM (inactive) | > 100 µM (inactive) | > 100 µM (inactive) | > 100 µM (inactive) | > 100 µM (inactive) | > 100 µM (inactive) | > 100 µM (inactive) | > 100 µM (inactive) | > 100 µM (inactive) | > 100 µM (inactive) | > 100 µM (inactive) | > 100 µM (inactive) | > 100 µM (inactive) | > 100 µM (inactive) | > 100 µM (inactive) | > 100 µM (inactive) | > 100 µM (inactive)
7 | Clc1ccc(-c2c(C3=NCCN3)nnn2-c2ccc(Cl)cc2)cc1 | 35.2 µM (inactive) | 19.8 µM (inactive) | 14.4 µM (inactive) | 25.9 µM (inactive) | 11.4 µM (inactive) | 71.4 µM (inactive) | 58.3 µM (inactive) | 18.2 µM (inactive) | 29.6 µM (inactive) | 16 µM (inactive) | 19.7 µM (inactive) | 59.8 µM (inactive) | 12.6 µM (inactive) | 53.1 µM (inactive) | 18 µM (inactive) | 20.5 µM (inactive) | 19.1 µM (inactive) | 29.4 µM (inactive) | 33.5 µM (inactive)
8 | N#CC(Sc1ccccc1)C(N)=O (stereo not given) | > 100 µM (inactive) | > 100 µM (inactive) | > 100 µM (inactive) | > 100 µM (inactive) | > 100 µM (inactive) | > 100 µM (inactive) | > 100 µM (inactive) | > 100 µM (inactive) | > 100 µM (inactive) | > 100 µM (inactive) | > 100 µM (inactive) | > 100 µM (inactive) | > 100 µM (inactive) | > 100 µM (inactive) | > 100 µM (inactive) | > 100 µM (inactive) | > 100 µM (inactive) | > 100 µM (inactive) | > 100 µM (inactive)
9 | CCOC(=O)/C(=C/c1ccc(C(=O)OC)cc1)N(CC)CC | 36.6 µM (inactive) | 41.3 µM (inactive) | 37.2 µM (inactive) | 35.3 µM (inactive) | 29.1 µM (inactive) | 70.8 µM (inactive) | 63 µM (inactive) | 57.3 µM (inactive) | 50.5 µM (inactive) | 37.8 µM (inactive) | 71.6 µM (inactive) | 35.4 µM (inactive) | 70.1 µM (inactive) | 51.6 µM (inactive) | 26.2 µM (inactive) | 42 µM (inactive) | 90.4 µM (inactive) | 54.5 µM (inactive) | 41.6 µM (inactive)
10 | CCN(CC)C(=O)c1cccc2c(OC)ccc(OC)c12 | > 100 µM (inactive) | > 100 µM (inactive) | > 100 µM (inactive) | > 100 µM (inactive) | > 100 µM (inactive) | > 100 µM (inactive) | > 100 µM (inactive) | > 100 µM (inactive) | > 100 µM (inactive) | > 100 µM (inactive) | > 100 µM (inactive) | > 100 µM (inactive) | > 100 µM (inactive) | > 100 µM (inactive) | > 100 µM (inactive) | > 100 µM (inactive) | > 100 µM (inactive) | > 100 µM (inactive) | > 100 µM (inactive)
11 | O=C(CCc1cc(-c2ccccc2)[nH]c(=S)n1)Nc1ccccc1[N+](=O)[O-] | > 100 µM (inactive) | > 100 µM (inactive) | > 100 µM (inactive) | > 100 µM (inactive) | > 100 µM (inactive) | > 100 µM (inactive) | > 100 µM (inactive) | > 100 µM (inactive) | > 100 µM (inactive) | > 100 µM (inactive) | > 100 µM (inactive) | > 100 µM (inactive) | > 100 µM (inactive) | > 100 µM (inactive) | > 100 µM (inactive) | > 100 µM (inactive) | > 100 µM (inactive) | > 100 µM (inactive) | > 100 µM (inactive)
12 | c1ccc2c(OCCSCCCCCCCCCCSCCOc3cccc4ccccc34)cccc2c1 | > 100 µM (inactive) | > 100 µM (inactive) | > 100 µM (inactive) | > 100 µM (inactive) | > 100 µM (inactive) | > 100 µM (inactive) | > 100 µM (inactive) | > 100 µM (inactive) | > 100 µM (inactive) | > 100 µM (inactive) | > 100 µM (inactive) | > 100 µM (inactive) | > 100 µM (inactive) | > 100 µM (inactive) | > 100 µM (inactive) | > 100 µM (inactive) | > 100 µM (inactive) | > 100 µM (inactive) | > 100 µM (inactive)
13 | COc1cccc(-c2cc(O)c3cc4c(cc3n2)OCO4)c1 | 0.287 µM (active) | 0.0502 µM (active) | 0.182 µM (active) | 0.034 µM (active) | 0.139 µM (active) | 0.294 µM (active) | 0.22 µM (active) | 0.0452 µM (active) | 0.0374 µM (active) | 0.0238 µM (active) | 0.662 µM (active) | 2.59 µM (inactive) | 0.132 µM (active) | 0.116 µM (active) | 0.0446 µM (active) | 0.121 µM (active) | 0.0488 µM (active) | 0.109 µM (active) | 0.0339 µM (active)
14 | CCN(CC)CCOc1ccc(C(O)(Cc2ccc(OC)cc2)c2ccccc2)cc1 (stereo not given) | 17 µM (inactive) | 17.3 µM (inactive) | 22 µM (inactive) | 17.2 µM (inactive) | 14.4 µM (inactive) | 27.9 µM (inactive) | 33.6 µM (inactive) | 15.7 µM (inactive) | 23.6 µM (inactive) | 20.5 µM (inactive) | 28.7 µM (inactive) | 26.9 µM (inactive) | 12 µM (inactive) | 15.9 µM (inactive) | 4.39 µM (inactive) | 16.2 µM (inactive) | 18.5 µM (inactive) | 24.6 µM (inactive) | 21.7 µM (inactive)
15 | C/C(=C\Cc1cc(O)ccc1O)CCc1c(C)c(O)c(O)c(C=O)c1C [PANICEIN C] | 18.4 µM (inactive) | 20.3 µM (inactive) | 28.2 µM (inactive) | 35.6 µM (inactive) | 17.1 µM (inactive) | 26.7 µM (inactive) | 17.9 µM (inactive) |  | 26.7 µM (inactive) | 5.24 µM (inactive) | 48.2 µM (inactive) | 36.1 µM (inactive) | 18.6 µM (inactive) |  | > 100 µM (inactive) | 18.6 µM (inactive) | 32.9 µM (inactive) | 35.2 µM (inactive) | 26.7 µM (inactive)
